Values quoted from earlier work, collected in paper PMC9145865, “Effects of Rare Phytocannabinoids on the Endocannabinoid System of Human Keratinocytes” (International Journal of Molecular Sciences, 2022).

Tested on: transformed human keratinocytes
Set-up: method as in PMID 17157480
Conditions: hyperproliferative conditions; ref [46]; cited from earlier work

C=C(C)[C@@H]1CCC(C)=C[C@H]1c1c(O)cc(CCCCC)cc1O [CBD, cannabidiol]
proliferation of transformed human keratinocytes: inhibit the proliferation

CCCCCc1cc(O)c2c(c1)OC(C)(C)[C@@H]1CCC(C)=C[C@@H]21 [Δ^9-THC, Δ^9-tetrahydrocannabinol]
proliferation of transformed human keratinocytes: inhibit the proliferation
